Data on 15 compounds can be found in ChEMBL document CHEMBL5465560, “Selectivity Literature for EUbOPEN Chemogenomic Library” (2024).

The target in test [1] is T1, Serine/threonine-protein kinase Nek8 (Homo sapiens) (UniProt Q86SG6).
T1 sequence (whole entry): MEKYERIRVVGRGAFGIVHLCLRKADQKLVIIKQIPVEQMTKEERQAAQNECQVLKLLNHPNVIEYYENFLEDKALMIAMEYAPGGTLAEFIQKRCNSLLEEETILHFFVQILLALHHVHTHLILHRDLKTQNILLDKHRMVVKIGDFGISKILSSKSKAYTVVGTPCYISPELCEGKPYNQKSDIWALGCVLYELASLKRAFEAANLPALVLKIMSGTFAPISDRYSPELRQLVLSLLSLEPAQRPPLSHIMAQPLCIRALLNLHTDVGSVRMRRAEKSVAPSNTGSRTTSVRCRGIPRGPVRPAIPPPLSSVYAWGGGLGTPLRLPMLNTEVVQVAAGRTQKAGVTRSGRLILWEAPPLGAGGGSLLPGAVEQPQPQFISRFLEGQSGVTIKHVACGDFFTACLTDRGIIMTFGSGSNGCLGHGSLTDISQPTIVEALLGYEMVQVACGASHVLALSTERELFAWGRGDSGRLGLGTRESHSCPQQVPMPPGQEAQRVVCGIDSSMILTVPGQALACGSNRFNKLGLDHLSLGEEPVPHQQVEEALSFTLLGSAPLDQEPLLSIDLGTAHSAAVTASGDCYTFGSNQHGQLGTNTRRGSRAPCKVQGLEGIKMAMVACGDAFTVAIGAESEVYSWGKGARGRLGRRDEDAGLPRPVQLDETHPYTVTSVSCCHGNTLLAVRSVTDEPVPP
Nature of the test: Selectivity interaction (LanthaScreen Eu Kinase Binding Assay) EUB0001632a NEK8. To be noted: at 10 µM. A general note: In TR-FRET formats the signal depends on donor and acceptor labels being close together.

Test [2] has as its target Tyrosine-protein kinase SYK (Homo sapiens, UniProt P43405). Nature of the test: Selectivity interaction (KinomeScan (DiscoverX)) EUB0000595a SYK. The settings on record: at 10 µM.
Test [3] addresses Mast/stem cell growth factor receptor Kit (Homo sapiens, UniProt P10721). Nature of the test: Selectivity interaction (KinomeScan (DiscoverX)) EUB0001619a KIT. The settings on record: at 1 µM.
Test [4] concerns the target Death-associated protein kinase 3 (Homo sapiens) (UniProt O43293). The settings on record: at 10 µM.
In test [5] the target is Casein kinase II subunit alpha (Homo sapiens, UniProt P68400). To be noted: at 10 µM.
Test [6] addresses Cyclin-dependent kinase 2 (Homo sapiens, UniProt P24941). The settings on record: at 10 µM.
In test [7] the target is T2, Mitogen-activated protein kinase kinase kinase 7 (Homo sapiens) (UniProt O43318).
T2 sequence (whole entry): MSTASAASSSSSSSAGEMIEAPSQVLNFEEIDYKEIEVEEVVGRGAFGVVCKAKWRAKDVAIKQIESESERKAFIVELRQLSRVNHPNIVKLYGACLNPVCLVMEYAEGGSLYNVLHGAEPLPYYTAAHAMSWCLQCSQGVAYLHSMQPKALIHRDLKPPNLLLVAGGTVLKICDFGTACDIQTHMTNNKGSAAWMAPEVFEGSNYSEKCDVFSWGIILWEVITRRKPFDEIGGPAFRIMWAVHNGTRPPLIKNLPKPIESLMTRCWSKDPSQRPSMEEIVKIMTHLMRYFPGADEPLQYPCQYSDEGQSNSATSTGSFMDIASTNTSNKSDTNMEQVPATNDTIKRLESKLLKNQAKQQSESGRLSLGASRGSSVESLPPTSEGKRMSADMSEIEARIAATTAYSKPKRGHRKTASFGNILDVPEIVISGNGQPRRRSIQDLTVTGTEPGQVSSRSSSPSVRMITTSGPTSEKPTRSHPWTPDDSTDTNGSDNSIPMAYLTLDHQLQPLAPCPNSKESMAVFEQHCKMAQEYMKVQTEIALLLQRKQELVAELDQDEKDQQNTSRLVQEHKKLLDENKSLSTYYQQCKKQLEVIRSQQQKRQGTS
Nature of the test: Selectivity interaction (KinomeScan (DiscoverX)) EUB0000695a MAP3K7. The settings on record: at 100 nM.

Test [8] deals with Ribosomal protein S6 kinase alpha-4 (Homo sapiens) (UniProt O75676). Nature of the test: Selectivity interaction (SelectScreen profiling (Invitrogen)) EUB0000607a RPS6KA4. To be noted: at 2 µM.
Test [9] concerns the target Dual specificity mitogen-activated protein kinase kinase 2 (Homo sapiens) (UniProt P36507). Nature of the test: Selectivity interaction (ActivX KiNativ screen (kinase selectivity in THP-1 cell lysates)) EUB0000639a MAP2K2. It is filed as subcellular. The settings on record: lysate, at 0.01 µM.
In test [10] the target is Cyclin-dependent kinase 14 (Homo sapiens) (UniProt O94921). Briefly: Selectivity interaction (KinomeScan (DiscoverX)) EUB0000045b CDK14.
Cyclin-dependent kinase 14 (Homo sapiens), sequence (O94921 whole entry): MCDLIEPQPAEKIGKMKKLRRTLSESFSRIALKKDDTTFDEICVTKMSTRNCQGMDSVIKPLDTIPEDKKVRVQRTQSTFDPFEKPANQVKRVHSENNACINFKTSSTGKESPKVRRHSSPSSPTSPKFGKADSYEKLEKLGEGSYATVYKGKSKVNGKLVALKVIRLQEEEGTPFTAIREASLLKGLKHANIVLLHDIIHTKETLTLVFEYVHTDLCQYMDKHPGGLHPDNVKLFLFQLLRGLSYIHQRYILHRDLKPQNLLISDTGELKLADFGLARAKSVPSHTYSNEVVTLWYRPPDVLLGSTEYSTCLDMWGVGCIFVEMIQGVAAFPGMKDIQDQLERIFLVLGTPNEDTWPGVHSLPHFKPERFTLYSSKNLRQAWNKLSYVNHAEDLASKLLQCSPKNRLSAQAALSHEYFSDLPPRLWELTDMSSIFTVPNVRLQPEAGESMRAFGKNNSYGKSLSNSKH
Test [11] deals with Serine/threonine-protein kinase VRK2 (Homo sapiens) (UniProt Q86Y07). Nature of the test: Selectivity interaction (Ambit KINOMEscan and KiNATiv profiling in Jurkat cells) EUB0000090b VRK2. It is filed as cell-based. To be noted: at 1 µM.
In test [12] the target is Serine/threonine-protein kinase SIK3 (Homo sapiens) (UniProt Q9Y2K2). Nature of the test: Selectivity interaction (KinomeScan (DiscoverX)) EUB0001049a SIK3. The settings on record: at 1 µM.
Test [13] has as its target Mitogen-activated protein kinase 3 (Homo sapiens, UniProt P27361). Nature of the test: Selectivity interaction (KinomeScan (DiscoverX)) EUB0000655a MAPK3. To be noted: at 10 µM.
The target of test [14] is E3 ubiquitin-protein ligase TRIM33 (Homo sapiens) (UniProt Q9UPN9). Nature of the test: Selectivity interaction (Bromodomain panel (DSF asssay)) EUB0000270b TRIM33.
E3 ubiquitin-protein ligase TRIM33 (Homo sapiens), sequence (Q9UPN9 whole entry): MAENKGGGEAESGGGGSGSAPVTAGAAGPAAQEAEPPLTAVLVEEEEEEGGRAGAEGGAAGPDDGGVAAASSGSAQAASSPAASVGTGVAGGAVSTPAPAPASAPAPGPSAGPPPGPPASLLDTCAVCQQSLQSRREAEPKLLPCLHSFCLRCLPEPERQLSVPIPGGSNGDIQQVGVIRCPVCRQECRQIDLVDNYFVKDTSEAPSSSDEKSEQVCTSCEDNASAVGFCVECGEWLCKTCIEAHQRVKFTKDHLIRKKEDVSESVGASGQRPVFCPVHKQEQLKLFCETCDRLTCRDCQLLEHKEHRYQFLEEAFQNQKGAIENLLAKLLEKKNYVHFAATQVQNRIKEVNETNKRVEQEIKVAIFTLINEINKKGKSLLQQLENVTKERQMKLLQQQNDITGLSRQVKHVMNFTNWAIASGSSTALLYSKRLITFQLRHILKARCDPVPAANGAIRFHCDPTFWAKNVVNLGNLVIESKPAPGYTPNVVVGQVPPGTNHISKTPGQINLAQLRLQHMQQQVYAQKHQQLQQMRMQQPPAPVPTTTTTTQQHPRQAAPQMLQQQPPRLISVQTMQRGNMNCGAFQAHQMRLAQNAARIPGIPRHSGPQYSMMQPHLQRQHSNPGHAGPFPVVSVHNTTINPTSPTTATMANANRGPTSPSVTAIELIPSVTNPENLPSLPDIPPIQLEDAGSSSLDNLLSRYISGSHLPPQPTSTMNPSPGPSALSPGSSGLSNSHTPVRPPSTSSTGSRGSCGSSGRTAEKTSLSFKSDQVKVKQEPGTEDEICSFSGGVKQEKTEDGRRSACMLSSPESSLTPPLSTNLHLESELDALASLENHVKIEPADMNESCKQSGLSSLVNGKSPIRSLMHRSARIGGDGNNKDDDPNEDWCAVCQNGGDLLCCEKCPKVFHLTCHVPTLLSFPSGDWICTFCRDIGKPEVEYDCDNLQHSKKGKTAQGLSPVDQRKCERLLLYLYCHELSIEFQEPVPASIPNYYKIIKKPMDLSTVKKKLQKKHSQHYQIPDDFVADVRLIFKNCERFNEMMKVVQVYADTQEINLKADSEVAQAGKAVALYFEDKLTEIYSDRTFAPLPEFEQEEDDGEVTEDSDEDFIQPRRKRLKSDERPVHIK
The target in test [15] is Histone-lysine N-methyltransferase, H3 lysine-79 specific (Homo sapiens, UniProt Q8TEK3). Nature of the test: Selectivity interaction (Transferase panel (protein, RNA, and DNA methyltransferases. and EP300 (acetyltransferase))) EUB0000270b DOT1L.
Histone-lysine N-methyltransferase, H3 lysine-79 specific, sequence (Q8TEK3 whole entry, looked up): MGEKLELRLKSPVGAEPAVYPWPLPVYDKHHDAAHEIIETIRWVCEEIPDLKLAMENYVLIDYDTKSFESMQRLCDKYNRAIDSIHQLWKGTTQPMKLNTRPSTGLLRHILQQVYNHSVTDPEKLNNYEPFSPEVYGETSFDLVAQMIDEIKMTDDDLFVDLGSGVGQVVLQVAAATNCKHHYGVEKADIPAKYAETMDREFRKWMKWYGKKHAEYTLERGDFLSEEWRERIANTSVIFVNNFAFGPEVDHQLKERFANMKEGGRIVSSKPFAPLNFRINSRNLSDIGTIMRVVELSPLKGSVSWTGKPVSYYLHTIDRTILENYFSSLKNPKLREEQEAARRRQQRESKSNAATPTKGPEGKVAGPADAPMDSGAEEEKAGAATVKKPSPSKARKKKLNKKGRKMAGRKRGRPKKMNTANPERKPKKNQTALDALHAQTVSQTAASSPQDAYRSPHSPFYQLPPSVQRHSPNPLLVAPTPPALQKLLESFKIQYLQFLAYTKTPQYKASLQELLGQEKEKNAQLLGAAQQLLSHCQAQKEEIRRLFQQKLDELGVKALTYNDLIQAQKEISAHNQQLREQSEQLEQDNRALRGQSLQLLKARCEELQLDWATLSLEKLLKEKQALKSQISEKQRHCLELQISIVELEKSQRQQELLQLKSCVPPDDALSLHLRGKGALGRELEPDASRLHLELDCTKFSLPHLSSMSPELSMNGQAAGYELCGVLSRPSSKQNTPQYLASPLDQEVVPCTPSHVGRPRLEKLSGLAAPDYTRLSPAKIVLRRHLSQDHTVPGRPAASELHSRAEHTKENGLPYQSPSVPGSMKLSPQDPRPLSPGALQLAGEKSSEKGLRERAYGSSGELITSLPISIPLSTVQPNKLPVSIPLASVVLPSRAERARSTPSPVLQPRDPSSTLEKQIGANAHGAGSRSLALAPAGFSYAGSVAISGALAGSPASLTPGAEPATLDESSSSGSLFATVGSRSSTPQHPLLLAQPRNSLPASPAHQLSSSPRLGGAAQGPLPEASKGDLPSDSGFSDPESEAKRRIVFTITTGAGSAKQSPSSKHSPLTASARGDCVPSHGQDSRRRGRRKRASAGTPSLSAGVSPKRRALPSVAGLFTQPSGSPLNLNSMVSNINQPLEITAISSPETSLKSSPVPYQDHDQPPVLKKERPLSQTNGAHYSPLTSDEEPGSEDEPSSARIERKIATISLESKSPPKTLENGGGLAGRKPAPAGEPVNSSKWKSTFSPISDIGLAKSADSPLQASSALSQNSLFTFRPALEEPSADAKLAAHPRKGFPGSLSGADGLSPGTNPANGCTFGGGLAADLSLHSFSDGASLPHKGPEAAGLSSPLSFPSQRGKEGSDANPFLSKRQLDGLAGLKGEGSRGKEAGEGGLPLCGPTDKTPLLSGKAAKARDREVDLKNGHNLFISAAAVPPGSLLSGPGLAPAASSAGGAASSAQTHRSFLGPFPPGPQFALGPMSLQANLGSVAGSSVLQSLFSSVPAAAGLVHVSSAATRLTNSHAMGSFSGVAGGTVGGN
Test [16] deals with Cyclin-dependent kinase-like 1 (Homo sapiens) (UniProt Q00532). Briefly: Selectivity interaction (KinomeScan (DiscoverX)) EUB0000092b CDKL1. To be noted: at 10 µM.
Test [17] concerns the target T3, Dual specificity mitogen-activated protein kinase kinase 6 (Homo sapiens) (UniProt P52564).
T3 sequence (whole entry): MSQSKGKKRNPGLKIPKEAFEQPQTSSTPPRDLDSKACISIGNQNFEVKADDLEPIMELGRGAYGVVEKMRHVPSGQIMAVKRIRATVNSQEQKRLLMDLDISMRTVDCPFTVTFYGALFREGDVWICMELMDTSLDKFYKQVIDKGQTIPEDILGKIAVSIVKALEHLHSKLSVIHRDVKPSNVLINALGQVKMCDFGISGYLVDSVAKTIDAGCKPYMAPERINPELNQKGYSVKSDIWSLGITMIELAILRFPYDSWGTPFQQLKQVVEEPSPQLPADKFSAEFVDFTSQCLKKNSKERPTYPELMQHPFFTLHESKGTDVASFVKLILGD
Nature of the test: Selectivity interaction (Kinase panel (DSF assay)) EUB0001558a MAP2K6. Background: DSF heats the sample and reads unfolding from a dye or from intrinsic fluorescence.

Test [18] addresses Cyclin-dependent kinase 1/cyclin B (Homo sapiens) (UniProt P06493+P14635+Q8WWL7+O95067). Nature of the test: Selectivity interaction (Millipore kinase profiler) EUB0000124b CDK1. It is filed as protein-complex assay. To be noted: at 10 µM.

Mast/stem cell growth factor receptor Kit, sequence (P10721 whole entry): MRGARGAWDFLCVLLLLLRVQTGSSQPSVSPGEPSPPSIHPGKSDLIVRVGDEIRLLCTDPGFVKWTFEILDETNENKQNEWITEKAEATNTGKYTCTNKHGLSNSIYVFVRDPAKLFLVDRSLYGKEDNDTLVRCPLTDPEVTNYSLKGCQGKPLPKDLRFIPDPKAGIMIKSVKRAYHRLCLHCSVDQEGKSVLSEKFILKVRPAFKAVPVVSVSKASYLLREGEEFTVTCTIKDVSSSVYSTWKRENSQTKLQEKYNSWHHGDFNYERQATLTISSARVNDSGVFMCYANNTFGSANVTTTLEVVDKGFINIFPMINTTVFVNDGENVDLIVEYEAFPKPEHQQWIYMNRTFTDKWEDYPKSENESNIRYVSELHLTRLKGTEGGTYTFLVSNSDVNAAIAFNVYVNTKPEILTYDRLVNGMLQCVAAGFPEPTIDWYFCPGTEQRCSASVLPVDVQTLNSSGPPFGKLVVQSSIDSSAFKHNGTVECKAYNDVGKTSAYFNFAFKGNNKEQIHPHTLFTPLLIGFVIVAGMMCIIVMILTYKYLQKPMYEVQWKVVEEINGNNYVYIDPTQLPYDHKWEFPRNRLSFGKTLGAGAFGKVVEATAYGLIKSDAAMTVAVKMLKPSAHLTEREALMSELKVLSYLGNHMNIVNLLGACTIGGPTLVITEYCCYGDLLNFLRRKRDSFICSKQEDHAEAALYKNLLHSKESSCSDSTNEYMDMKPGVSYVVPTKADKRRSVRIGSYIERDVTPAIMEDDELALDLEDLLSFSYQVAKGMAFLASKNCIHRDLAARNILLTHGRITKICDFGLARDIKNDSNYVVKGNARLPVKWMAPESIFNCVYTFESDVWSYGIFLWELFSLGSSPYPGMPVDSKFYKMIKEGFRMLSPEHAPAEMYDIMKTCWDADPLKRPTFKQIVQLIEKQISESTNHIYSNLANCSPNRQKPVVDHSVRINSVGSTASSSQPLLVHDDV
Dual specificity mitogen-activated protein kinase kinase 2 (Homo sapiens), sequence (P36507 whole entry): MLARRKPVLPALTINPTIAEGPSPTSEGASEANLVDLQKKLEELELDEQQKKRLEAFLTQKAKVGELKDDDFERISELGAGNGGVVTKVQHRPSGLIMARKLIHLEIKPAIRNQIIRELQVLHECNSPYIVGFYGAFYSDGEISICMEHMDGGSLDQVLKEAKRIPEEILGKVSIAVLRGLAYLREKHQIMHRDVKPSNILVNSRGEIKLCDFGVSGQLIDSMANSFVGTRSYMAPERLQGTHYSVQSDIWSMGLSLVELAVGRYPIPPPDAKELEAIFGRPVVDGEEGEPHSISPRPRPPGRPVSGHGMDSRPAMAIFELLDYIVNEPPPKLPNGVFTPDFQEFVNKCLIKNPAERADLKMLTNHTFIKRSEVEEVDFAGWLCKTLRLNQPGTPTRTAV
Mitogen-activated protein kinase 3, sequence (P27361 whole entry): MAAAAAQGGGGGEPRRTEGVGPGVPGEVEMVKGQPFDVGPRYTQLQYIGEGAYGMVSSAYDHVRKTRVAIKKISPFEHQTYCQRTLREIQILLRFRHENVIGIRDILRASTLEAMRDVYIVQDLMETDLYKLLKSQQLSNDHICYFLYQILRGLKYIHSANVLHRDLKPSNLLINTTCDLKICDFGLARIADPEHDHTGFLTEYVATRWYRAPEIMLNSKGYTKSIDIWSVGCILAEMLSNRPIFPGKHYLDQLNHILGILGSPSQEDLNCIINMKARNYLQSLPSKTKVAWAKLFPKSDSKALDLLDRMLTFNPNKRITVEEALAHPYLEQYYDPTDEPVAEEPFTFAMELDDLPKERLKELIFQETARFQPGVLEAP

On to `Cn1cc(-n2cnc3c(NCc4nc5cc(Cl)c(Cl)cc5[nH]4)nc(N4CCOCC4)nc32)cn1`, for which the % of inhibition in test [1] was -38.3%.

On to `COCC(=O)NC/C=C/c1ccc2ncnc(Nc3ccc(Oc4ccc(C)nc4)c(C)c3)c2c1` [CP-724714], for which the % of control in test [2] turned out to be 100%.

The compound `N#Cc1cccc(-c2c[nH]c3ncnc(N4CCOCC4)c23)c1` gave a % of control in [3] of 100%.

Turning to `CCN(CC)CCCCNc1ncc2cc(-c3cc(OC)cc(OC)c3)c(NC(=O)NC(C)(C)C)nc2n1`, the % of control in [4], in test [5] and in test [6] was 100% in each case.

Regarding `Cc1cc(F)c(C(=O)Nc2cccc(-c3nncn3C(C)C)n2)cc1-n1cnc(C2CC2)c1`, in test [7], the % of control turned out to be 81%.

As to `CNC(=O)Nc1ccc(-c2nc(N3CC4CCC(C3)O4)c3cnn(C4CCC5(CC4)OCCO5)c3n2)cc1`, the % of inhibition in [8] is 1%.

Take `CC[C@@H]1[C@H](F)C(=O)N[C@@H]1COc1nccc2cc(C(N)=O)c(OC)cc12` [ZIMLOVISERTIB]: in [9], the % of inhibition was -2%.

As to `C=CC(=O)Nc1cc(-n2c(=O)ccc3cnc4ccc(-c5ccc(NS(C)(=O)=O)cc5)cc4c32)ccc1C`, the % of control in test [10] (at 1 µM) amounted to 100%; in test [10] (at 10 µM), 72%.

As to `CN(C)C/C=C/C(=O)Nc1ccc(C(=O)N2CCCC(Nc3ncc(Cl)c(-c4c[nH]c5ccccc45)n3)C2)cc1` (stereo not given), in test [11], the % of control was found to be 97%.

In turn, `COc1cc(Nc2nc(C)cc(-c3cnn4nc(OC)ccc34)n2)cc(C(F)(F)F)c1` registered a % of control in test [12] of 82%.

In test [13], `CN(C)CCOc1ccc(-c2nc(-c3ccncc3)c(-c3ccc4c(c3)CC/C4=N\O)[nH]2)cc1` came in with a % of control of 100%.

Compound `Cc1cc(CN)cc(C)c1-c1ncn(C)c1-c1cncn1C` gave a dTM in [14] of -0.48 K. In addition, the % activity in test [15] (at 1 µM) is more than 90%; in test [15] (at 10 µM), more than 80%.

In the case of `CCC(=O)N1CCN(c2ccc(-n3c(=O)ccc4cnc5ccc(-c6cnc7ccccc7c6)cc5c43)cc2C(F)(F)F)CC1`, the % of control in test [16] was 100%.

The compound `CC(C)(O)[C@H](F)CN1Cc2cc(NC(=O)c3cnn4cccnc34)c(N3CCOCC3)cc2C1=O` yielded a dTM in test [17] of 0.3 K.

Compound `CC(=O)Nc1cccc(-n2c(=O)n(C3CC3)c(=O)c3c(Nc4ccc(I)cc4F)n(C)c(=O)c(C)c32)c1` registered a % of control in [18] of 104%.
